Measurements taken from US11384115B2, “Nuclear sulfated oxysterol, potent regulator of lipid homeostasis, for therapy of hypercholesterolemia, hypertriglycerides, fatty liver diseases, and atherosclerosis” (Virginia Commonwealth University, priority 2004, dated 2022).

Target: T1, PPARγ (Homo sapiens, UniProt P37231)
T1 construct: THP-1 monocytes were differentiated to macrophages by adding 100 nM of phorbol 12-myristate 13-acetate (PMA); endogenous in cells; host or cells: THP-1 monocyte-derived macrophages (human, ATCC)
T1 sequence (P37231 1-505): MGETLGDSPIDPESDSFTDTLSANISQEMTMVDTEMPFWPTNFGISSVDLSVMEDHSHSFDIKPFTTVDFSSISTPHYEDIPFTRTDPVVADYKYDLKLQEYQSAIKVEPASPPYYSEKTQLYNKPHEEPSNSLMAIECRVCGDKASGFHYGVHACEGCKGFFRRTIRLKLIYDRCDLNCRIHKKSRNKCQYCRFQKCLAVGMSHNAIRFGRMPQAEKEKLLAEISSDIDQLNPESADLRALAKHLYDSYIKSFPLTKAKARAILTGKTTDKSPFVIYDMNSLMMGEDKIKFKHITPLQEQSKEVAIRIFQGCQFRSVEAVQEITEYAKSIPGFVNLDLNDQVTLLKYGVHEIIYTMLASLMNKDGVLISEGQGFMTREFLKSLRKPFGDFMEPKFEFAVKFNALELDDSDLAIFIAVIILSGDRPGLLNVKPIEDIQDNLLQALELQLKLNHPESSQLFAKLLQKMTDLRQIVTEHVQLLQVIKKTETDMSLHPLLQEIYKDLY
Assay: Confocal immunofluorescence of intracellular PPARγ distribution in THP-1 macrophages
Assay type: cell-based
Conditions: compared with DMSO; 25 μM 25HC3S, 1 μM T0070907
Description: Confocal microscopy analysis of intracellular translocation of PPARγ protein distribution. The nuclear marker was stained with DAP1 and PPARγ protein was detected by anti-PPARγ immunofluorescence.
THP-1 derived macrophages were cultured on coverslips in six-well plates and treated with different concentrations of 25HC and 25HC3S for 4 hrs. The cells on coverslips were washed with PBS, fixed with 3.7% formaldehyde for 10 min at 4° C., and then rinsed three times with PBS at room temperature. They were then permeabilized with PBS containing 0.1% of TritonX-100 for 3 min and washed with PBS before blocking by incubation with 5% of normal goat serum in PBS overnight at 4° C. For interaction with primary antibodies, cells were incubated with 2.5% normal goat serum in PBS containing PPARγ antibody for 1 hr in an incubator. Cells were washed in PBS containing 0.05% of Tween 20 (3×10 min). The bound primary antibodies were visualized with Alexa Fluor 488 goat anti-mouse IgG. The minor groove of double stranded DNA as a nuclear marker was stained by DAPI. Afterwashing, coverslips were mounted on slides and viewed with a Zeiss LSM 510 Meta confocal microscope.

C[C@H](CCCC(C)(C)O)[C@H]1CC[C@H]2[C@@H]3CC=C4C[C@@H](OS(=O)(=O)O)CC[C@]4(C)[C@H]3CC[C@]12C [25HC3S, 5-cholesten-3β, 25-diol 3-sulphate]
nuclear PPARγ fluorescence intensities: increased
